Assay results published in US7863446B2, “Heterocycles” (Orchid Research Laboratories Limited, priority 2006, dated 2011).
Each block holds one compound with its values, some of them ahead of it.

What was measured:
[1] = biological target: purified recombinant COX-1 (Homo sapiens, UniProt P23219); assay: COX-1 enzyme based assay; format: biochemical; conditions: NA = No activity, read-out: % Inhibition in rEnzyme Assay COX-1
Summary of the method: (§1)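 Purified recombinant enzyme converted arachidonic acid to PGH2 at 37° C with or without test compound; stopped with 1M HCl after 2 minutes. PGH2 reduced by SnCl2 to PGF2α, quantified by enzyme immunoassay; inhibition inferred from reduced prostanoid.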

[2] = biological target: T1, purified recombinant COX-2 (Homo sapiens, UniProt P35354); assay: COX-2 enzyme based assay; format: biochemical; conditions: NA = No activity, read-out: % Inhibition in rEnzyme Assay COX-2
T1 sequence (P35354 18-604): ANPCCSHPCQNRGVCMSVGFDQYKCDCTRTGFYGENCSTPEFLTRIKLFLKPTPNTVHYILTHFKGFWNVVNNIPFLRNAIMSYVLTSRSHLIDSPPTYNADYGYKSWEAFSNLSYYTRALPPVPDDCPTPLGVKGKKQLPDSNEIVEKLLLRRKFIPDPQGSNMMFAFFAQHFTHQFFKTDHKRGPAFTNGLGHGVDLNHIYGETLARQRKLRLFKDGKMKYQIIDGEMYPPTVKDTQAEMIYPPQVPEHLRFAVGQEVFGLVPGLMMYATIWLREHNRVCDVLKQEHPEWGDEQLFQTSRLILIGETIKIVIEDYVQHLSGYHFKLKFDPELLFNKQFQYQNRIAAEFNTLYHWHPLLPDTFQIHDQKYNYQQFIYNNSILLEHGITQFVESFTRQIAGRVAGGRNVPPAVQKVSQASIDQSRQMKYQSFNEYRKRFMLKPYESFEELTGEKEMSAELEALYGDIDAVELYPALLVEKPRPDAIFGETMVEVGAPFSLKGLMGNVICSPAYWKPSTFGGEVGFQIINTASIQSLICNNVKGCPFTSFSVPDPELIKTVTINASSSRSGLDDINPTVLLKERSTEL
Summary of the method: as §1

DU-145 = assay: Anti-cancer screen (MTT), DU-145; format: cell-based; conditions: Homo sapiens, DU-145, 48 hours
HCT-116 = assay: Anti-cancer screen (MTT), HCT-116; format: cell-based; conditions: Homo sapiens, HCT-116, 48 hours
Protocol: (§2) Experimental drugs are screened for anti-cancer activity in three cell lines for their GI50, TG1 and LC50 values (using 5 concentrations for each compound). The cell lines are maintained in DMEM containing 10% fetal bovine serum. 96 well microtiter plates are inoculated with cells in […] for 24 hours at 37° C., 5% CO2, 95% air and 100% relative humidity. 5000 HCT116 cells/well, 5000 NCIH460 cells/well, 10000 U251 cells/well and 5000 MDAMB231 cells/well are plated. A separate plate with these cell lines is also inoculated to determine cell viability before the addition of the compounds (T0).
(§3) Addition of Experimental Drugs
(§4) Following 24-hour incubation, experimental drugs are added to the 96 well plates. Each plate contains one of the above cell lines and the following in triplicate: 5 different concentrations (0.01, 0.1, 1, 10 and 100 μM) of 4 different compounds, appropriate dilutions of a cytotoxic standard and control (untreated) wells. Compounds are dissolved in dimethylsulfoxide (DMSO) to make 20 mM stock solutions, on the day of drug addition and frozen at −20° C. Serial dilutions of these 20 mM stock solutions are made in complete growth medium such that 100 μL of these drug solutions in medium, of final concentrations equaling 0.01, 0.1, 1, 10 and 100 μM can be added to the cells in triplicate. Standard drugs whose anti-cancer activity has been well documented and which are regularly used are doxorubicin and SAHA.
(§5) Cells are incubated with compounds for 48 hours followed by the addition of 10 μL 3-(4,5-Dimethyl-2-thiazolyl)-2,5-diphenyl-2H-tetrazolium (MTT) solution per well and a subsequent incubation at 37° C., 5% CO2, 95% air and 100% relative humidity, protected from light. After 4 hours, well contents are aspirated carefully followed by addition of 150 μL DMSO per well. Plates are agitated to ensure solution of the formazan crystals in DMSO and absorbance read at 570 nm.
(§6) Calculation of GI50, TGI and LC50
(§7) Percent growth is calculated for each compound's concentration relative to the control and zero measurement wells (T0; viability right before compound addition).
(§8) If a test well's O.D. value is greater than the T0 measurement for that cell line % Growth=(test−zero)/(control−zero)×100
(§9) If a test well's O.D. value is lower than the T0 measurement for that cell line, then % Growth=(test−zero)/zero×100 Plotting % growth versus experimental drug concentration, GI50 is the concentration required to decrease % growth by 50%; TGI is the concentration required to decrease % growth by 100% and LC50 is the concentration required to decrease % growth by 150%.

NCI-H460 = assay: Anti-cancer screen (MTT), NCI-H460; format: cell-based; conditions: Homo sapiens, NCI-H460, 48 hours
Protocol: as §2, §3, §4, §5, §6, §7, §8, §9

TNF-α = assay: In vitro measurement of TNF-α in human PBMC (LPS stimulated); format: cell-based; conditions: for inhibition at 1 µM: NA = No activity, read-out: TNF-α Inhibition (%) at Conc. (1 μM); for inhibition at 10 µM: read-out: TNF-α Inhibition (%) at Conc. (10 μM)
Summary of the method: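 Healthy-volunteer PBMC (0.5 million/well) in RPMI were pre-incubated with compound 15 min at 37 °C. They were then stimulated with E. coli B4 LPS 1 μg/ml for 18 h at 37 °C, 5% CO2. TNF-α in culture medium was measured by ELISA.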

Male wistar rats = assay: Carrageenan induced paw edema test in rat; format: in vivo; conditions: oral, 3 hours after carrageenan
Protocol: Carrageenan Induced Paw Edema Test in Rat
The carrageenan paw edema test was performed as described by Winter et al (Proc. Soc. Exp. Biol. Med, 111, 544, 1962). Male wistar rats were selected with body weights equivalent within each group. The rats were fasted for 18 hours with free access to water. The rats were dosed orally with the test compound suspended in the vehicle containing 0.25% carboxymethylcellulose and 0.5% Tween 80. The control rats were administered with vehicle alone. After an hour, the rats were injected with 0.1 ml of 1% Carrageenan solution in 0.9% saline into the sub-plantar surface of the right hind paw. Paw volume was measured using digital plethysmograph before and after 3 hours of carrageenan injection. The average of foot swelling in drug treated animals was compared with that of the control animals. Anti-inflammatory activity was expressed as the percentage inhibition of edema compared with control group [Arzneim-Forsch/Drug Res., 43 (I), 1, 44-50, 1993; Representative results of edema inhibition are shown in the Table VI.

Animals (male wistar) = assay: Ulcerogenic potential; format: in vivo; conditions: oral, 4 hours after administration
Protocol: In order to evaluate the compound's role on the ulcer formation, the animals were sacrificed and the stomach was taken out and flushed with 1% formalin. Animals (male wistar. 200 g) were fasted for 18 hours with free access to water and the test compounds were suspended in 0.5% Tween 80 and 0.25% CMC (carboxymethylcellulose) solution to make a uniform suspension. After 4 hours of oral administration of test compounds, all the animals were sacrificed by cervical dislocation. The stomach was dissected carefully and filled up with a sterile saline solution and embedded in 6% formalin solution. […] The test compound treated groups were compared with the vehicle treated groups. […]

IL-6 = assay: In vitro measurement of IL-6 in human PBMC (LPS stimulated); format: cell-based; conditions: 10 μM, read-out: IL-6 Inhibition (%) Conc. (10 μM)
Protocol: In Vitro Measurement of Interleukin-6(IL-6)
This assay determins the effect of test compounds on the production of IL-6 in human PBMC (Physiol. Res. 52: 593-598, 2003). Compounds were tested for their ability to inhibit the activity of IL-6 in human PBMC. PBMC were isolated from blood using BD Vacutainer CPT™ Cell preparation tube (BD Bio Science) and suspended in RPMI medium. The test compounds were pre-incubated with PBMC (0.5 million/incubation well) for 15 minutes at 37° C. and then stimulated with Lipopolysaccharide (Escherichia coli: B4; 1 μg/ml) for 18 hours at 37° C. in 5% CO2. The levels of IL-6 in cell culture medium were estimated using enzyme-linked immunosorbent assay performed in a 96 well format as per the procedure of the manufacturer (Cayman Chemical, Ann Arbor, USA).

IL-12 = IL-12 inhibition; format: cell-based
PDE4 = PDE4 activity; format: biochemical; conditions: source Human U937 cells
Protocol: PDE4 Activity PDE4 inhibition was measured by following a literature assay procedure (Cortizo J et al., Br J Pharmacol., 1993, 108: 562-568. The assay method involves the following conditions. • Source: Human U937 cells • Substrate: 1.01 μM [^3H] camp+camp • Vehicle: 1% DMSO • Pre-Incubation Time/Temperature: 15 minutes at 25° C. • Incubation Time/Temperature. 20 minutes at 25° C. • Incubation buffer: 50 mM Tris-HCl, pH 7.5, 5 mM MgCl2 • Quantitation method: Quantitation of [^3H] Adenosine • Significance criteria: >50% of max stimulation or inhibition The results are tabulated as shown in the table XIII.

Chain of purified recombinant COX-1 (P23219 24-599): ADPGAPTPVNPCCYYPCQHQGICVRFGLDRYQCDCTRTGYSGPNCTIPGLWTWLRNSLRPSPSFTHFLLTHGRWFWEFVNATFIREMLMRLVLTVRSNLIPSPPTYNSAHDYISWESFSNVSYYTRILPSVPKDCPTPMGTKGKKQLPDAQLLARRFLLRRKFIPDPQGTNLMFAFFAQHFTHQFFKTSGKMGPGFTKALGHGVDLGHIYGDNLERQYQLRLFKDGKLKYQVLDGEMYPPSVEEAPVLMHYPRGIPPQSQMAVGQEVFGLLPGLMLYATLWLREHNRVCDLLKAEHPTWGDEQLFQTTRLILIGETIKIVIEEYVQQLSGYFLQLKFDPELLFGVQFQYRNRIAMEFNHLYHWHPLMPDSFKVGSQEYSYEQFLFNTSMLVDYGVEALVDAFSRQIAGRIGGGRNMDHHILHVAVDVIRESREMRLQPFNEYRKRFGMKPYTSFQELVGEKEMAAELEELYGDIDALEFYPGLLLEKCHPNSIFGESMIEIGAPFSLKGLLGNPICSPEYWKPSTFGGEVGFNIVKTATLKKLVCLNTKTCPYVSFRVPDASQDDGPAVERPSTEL

inhibition at 1 µM ([1]; 1 μM): 33.8%
inhibition at 10 µM ([1]; 10 μM): 50.4%
inhibition at 1 µM ([2]; 1 μM): 17.3%
inhibition at 10 µM ([2]; 10 μM): 48.9%
GI50 (DU-145): 3.5 µM
GI50 (HCT-116): 2.5 µM
GI50 (NCI-H460): 8.5 µM
SMILES: CNS(=O)(=O)c1ccc(-c2c(N)nc(C(F)(F)F)nc2-c2ccc(S(C)(=O)=O)cc2)cc1 [Example 2, 4-{4-Amino-6-[4-(methylsulfonyl)phenyl]-2-(trifluoromethyl)pyrimidin-5-yl}-N-methylbenzenesulfonamide]

SMILES: CNc1nc(C(F)(F)F)nc(-c2ccc(S(C)(=O)=O)cc2)c1-c1ccc(S(=O)(=O)NC)cc1 [Example 5, 4-{4-(Methylamino)-6-[4-(methylsulfonyl)phenyl]-2-(trifluoromethyl)pyrimidin-5-yl}-N-methylbenzenesulfonamide]
inhibition at 1 µM (TNF-α): 35.9%
inhibition at 10 µM (TNF-α): 56.3%
Inhibition of edema (%) at 5 mg/kg (Male wistar rats): 14.5%
Ulcer incidence at 5 mg/kg (Animals (male wistar)): Nil

GI50 (DU-145): 4 µM
GI50 (HCT-116): 6 µM
GI50 (NCI-H460): 3.75 µM
SMILES: CS(=O)(=O)c1ccc(-c2nc(C(F)(F)F)nc(N3CCN(C(=O)c4ccc([N+](=O)[O-])o4)CC3)c2-c2ccccc2)cc1 [Example 38, 6-[4-(Methylsulfonyl)phenyl]-4-[4-(5-nitro-2-furoyl)piperazin-1-yl]-5-phenyl-2-(trifluoromethyl)pyrimidine]

SMILES: CS(=O)(=O)c1ccc(-c2nc(C(F)(F)F)nc(N3CCN(S(=O)(=O)c4ccc(F)cc4Cl)CC3)c2-c2ccccc2)cc1 [Example 157, 4-{4-[(2-Chloro-4-fluorophenyl)sulfonyl]piperazin-1-yl}-6-(4-methylsulfonylphenyl)-5-phenyl-2-(trifluoromethyl)pyrimidine]
inhibition at 1 µM (TNF-α): 33.5%
inhibition at 10 µM (TNF-α): 91.3%
inhibition at 10 µM (IL-6): 65.7%
inhibition at 1 µM (IL-12; read-out: IL-12 Inhibition (%) Conc. (1 μM)): 69%
inhibition at 10 µM (IL-12; read-out: IL-12 Inhibition (%) Conc. (10 μM)): 98.3%

SMILES: NS(=O)(=O)c1cccc(-c2c(-c3ccccc3)nc(C(F)(F)F)nc2N2CCN(C(=O)C(F)(F)F)CC2)c1 [Example 172, 3-{6-Phenyl-4-[4-(trifluoroacetyl)piperazin-1-yl]-2-(trifluoromethyl)pyrimidin-5-yl}benzenesulfonamide]
PDE4 inhibition at 10 μM (%) (PDE4): 87%

SMILES: Fc1ccc(-c2nc(C(F)(F)F)nc(NC3CC3)c2-c2ccccc2)cc1 [Example 174, N-Cyclopropyl-6-(4-fluorophenyl)-5-phenyl-2-(trifluoromethyl)pyrimidin-4-amine]
PDE4 inhibition at 10 μM (%) (PDE4): 88%

SMILES: NS(=O)(=O)c1cccc(-c2c(-c3ccccc3)nc(C(F)(F)F)nc2N2CCC(=O)CC2)c1 [Example 178, 3-[6-Phenyl-4-(4-oxopiperidin-1-yl)-2-(trifluoromethyl)pyrimidin-5-yl]benzenesulfonamide]
PDE4 inhibition at 10 μM (%) (PDE4): 84%
